Our source for the Activity and inhibition values is ChEMBL document CHEMBL4428086, “Quassinoids: Viral protein R inhibitors from Picrasma javanica bark collected in Myanmar for HIV infection” (Bioorg Med Chem Lett, 2016).

What all share (format): cell-based
The test system of data set [1] is Human immunodeficiency virus 1. Description: Inhibition of c-myc and His6-tagged full length HIV1 NL4-3 Vpr transfected in human TREx-HeLa cells assessed as cell proliferation at 2.5 uM after 48 hrs in presence of tetracycline by WST-8 assay (reference value: 100 +/- 1%). The arrangement: scale not given: the % may be the effect or the level left. Background: Formazan colour is commonly taken as a measure of viable cells.

For data set [2], the system named is HeLa. Description: Cytotoxicity against human TREx-HeLa cells assessed as cell viability at 2.5 uM after 48 hrs by WST-8 assay.
For data set [3], the system named is Human immunodeficiency virus 1. The data set is described as follows: Inhibition of c-myc and His6-tagged full length HIV1 NL4-3 Vpr transfected in human TREx-HeLa cells assessed as cell proliferation at 1.25 uM after 48 hrs in presence of tetracycline by WST-8 assay (reference value: 100 +/- 1%). The arrangement: scale not given: the % may be the effect or the level left.

For data set [4], the system named is Human immunodeficiency virus 1. The data set is described as follows: Inhibition of c-myc and His6-tagged full length HIV1 NL4-3 Vpr transfected in human TREx-HeLa cells assessed as cell proliferation at 5 uM after 48 hrs in presence of tetracycline by WST-8 assay (reference value: 100 +/- 1%). The arrangement: scale not given: the % may be the effect or the level left.

In data set [5] the test system is Human immunodeficiency virus 1. The data set is described as follows: Inhibition of c-myc and His6-tagged full length HIV1 NL4-3 Vpr transfected in human TREx-HeLa cells assessed as cell proliferation at 1.25 uM after 48 hrs in presence of tetracycline by WST-8 assay.

Structures are written as SMILES.

`COC1=C[C@@H](O)[C@@H]2C[C@H]3OC(=O)C[C@H]4C(C)=C(OC)C(=O)[C@H]([C@@]2(C)C1=O)[C@@]34C`: the Activity in data set [1] was 138%; in data set [2], “Non-Toxic”; in data set [3], 140%; in data set [4] it was 141%.
Turning to `COC1=CC[C@@H]2C[C@H]3OC(=O)C=C4C(CO)=C(OC)C(=O)[C@H]([C@@]2(C)C1=O)[C@]43C`, the Activity is 140% in data set [1], “Non-Toxic” in data set [2], 132% in data set [3] and 141% in data set [4].
The like results for `COC1=C(C)[C@@H]2CC(=O)O[C@@H]3C[C@H]4CC[C@H](O)C(=O)[C@]4(C)[C@@H](C1=O)[C@@]32C` were, in that order, 156%, “Non-Toxic”, 156% and 158%.
The like results for `COC1=CC[C@@H]2C[C@H]3OC(=O)C[C@H]4C(C)=C(OC)C(=O)[C@H]([C@@]2(C)C1=O)[C@@]34C` were, in that order, 159%, “Non-Toxic”, 157% and 163%.
The like results for `COC1=C(C)[C@]2(O)CC(=O)O[C@@H]3C[C@H]4CC[C@H](O)C(=O)[C@]4(C)[C@@H](C1=O)[C@@]32C` were, in that order, 166%, “Non-Toxic”, 162% and 170%.
Turning to `COC1=CC[C@@H]2C[C@H]3OC(=O)C[C@H]4C(C=O)=C(OC)C(=O)[C@H]([C@@]2(C)C1=O)[C@@]34C`, the Activity in data set [1] is 153%; in data set [2], “Non-Toxic”; in data set [3] it was 131%; in data set [4] it was 152%.
Take `COC1=CC[C@@H]2C[C@H]3OC(O)C[C@H]4C(C)=C(OC)C(=O)[C@H]([C@@]2(C)C1=O)[C@@]34C` (stereo not given in full): the Activity in data set [1] was 174%; in data set [2] it was “Non-Toxic”; in data set [3] it was 170%; in data set [4], 178%.
The like results for `COC1=CC[C@@H]2C[C@H]3OC(=O)C[C@H]4C(CO)=C(OC)C(=O)[C@H]([C@@]2(C)C1=O)[C@@]34C` were, in that order, 147%, “Non-Toxic”, 148% and 150%.
The like results for `COC1=CC(=O)[C@@H]2C[C@H]3OC(=O)C[C@H]4C(C)=C(OC)C(=O)[C@H]([C@@]2(C)C1=O)[C@@]34C` were, in that order, 155%, “Non-Toxic”, 117% and 155%.
As to `COC1=CC[C@@H]2C[C@H]3OC(=O)C=C4C(C)=C(OC)C(=O)[C@H]([C@@]2(C)C1=O)[C@]43C`, in data set [5], the inhibition result was “Dose-dependent effect”. The Activity is 214% in data set [1], “Non-Toxic” in data set [2], 175% in data set [3] and 216% in data set [4].
For the compound `COC1=C(C)[C@@H]2CC(=O)O[C@@H]3C[C@H]4CC[C@H](OC)C(=O)[C@]4(C)[C@@H](C1=O)[C@@]32C`, the Activity in data set [1] is 168%; in data set [2], “Non-Toxic”; in data set [3], 165%; in data set [4], 173%.
Consider `COC1=C(CO)[C@@H]2CC(=O)O[C@@H]3C[C@H]4CC[C@H](O)C(=O)[C@]4(C)[C@@H](C1=O)[C@@]32C`, for which the Activity was 137% in data set [1], “Non-Toxic” in data set [2], 102% in data set [3] and 135% in data set [4].
For `COC1=C(OC)C(=O)[C@@]2(C)[C@H](C1)C[C@H]1OC(=O)C[C@H]3C(CO)=C(OC)C(=O)[C@H]2[C@@]13C`, in that order: 126%, “Non-Toxic”, 139% and 127%.
For the compound `COC1=C(OC)C(=O)[C@@]2(C)[C@H](C1)C[C@H]1OC(=O)C[C@H]3C(C)=C(OC)C(=O)[C@H]2[C@@]13C`, the Activity is 136% in data set [1], “Non-Toxic” in data set [2], 112% in data set [3] and 134% in data set [4].
For `COc1c(C=O)c(O)cc2c1C(=O)c1ccccc1C2=O` [DAMNACANTHAL], the Activity was 218% in data set [1], “Non-Toxic” in data set [2], 203% in data set [3] and 219% in data set [4].
`COC1=C(OC)C(=O)[C@@]2(C)[C@H](C1)C[C@H]1OC(=O)C[C@@]3(O)C(C)=C(OC)C(=O)[C@H]2[C@@]13C`: the Activity in data set [1] is 138%; in data set [2] it was “Non-Toxic”; in data set [3] it was 141%; in data set [4] it was 139%.
